What was measured:
[1] = 37% formaldehyde; cited from earlier work
[2] = biological target: T1, influenza hemagglutinin protein (Influenza A virus, UniProt P03452); test: LCMS/MS of hemagglutinin protein reacted with EGCG; details: EGCG modified in the form of dihydro epigallocatechin (C15H11O6)
T1 construct: host or cells: human cells
Experimental: In addition, the hemagglutinin protein reacted with EGCG was analyzed through liquid chromatography mass spectrometry (LCMS/MS). The protein bands stained with Coomassie blue were separated by in-gel digestion, subjected to alkylation and de-staining processes, and then prepared into peptide fragments using trypsin. The prepared peptide fragments were analyzed using LCMS/MS [(Q-Exactive mass spectrometer (Thermo Fisher Scientific, Bremen, Germany) coupled with an Easy-nLC system (Thermo Fisher Scientific, Odense, Denmark)].

T1 sequence (P03452 18-565): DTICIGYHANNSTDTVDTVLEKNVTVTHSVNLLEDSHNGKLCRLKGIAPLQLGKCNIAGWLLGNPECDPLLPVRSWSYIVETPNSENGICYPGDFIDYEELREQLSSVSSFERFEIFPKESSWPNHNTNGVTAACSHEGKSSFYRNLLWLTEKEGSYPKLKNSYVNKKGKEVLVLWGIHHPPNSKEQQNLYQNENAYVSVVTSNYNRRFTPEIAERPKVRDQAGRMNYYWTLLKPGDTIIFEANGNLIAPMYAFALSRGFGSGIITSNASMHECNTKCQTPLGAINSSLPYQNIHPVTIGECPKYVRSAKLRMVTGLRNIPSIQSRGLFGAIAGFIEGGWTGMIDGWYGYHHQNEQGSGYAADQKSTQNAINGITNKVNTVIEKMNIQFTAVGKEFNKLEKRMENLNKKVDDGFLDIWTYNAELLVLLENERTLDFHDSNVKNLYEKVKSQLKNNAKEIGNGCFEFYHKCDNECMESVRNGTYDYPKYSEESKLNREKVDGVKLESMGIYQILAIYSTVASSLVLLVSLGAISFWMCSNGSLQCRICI

C=O [formaldehyde]
amount that can lead to death in adults [1]: 30 mL

(−)-epigallocatechin gallate [EGCG]
binding site of EGCG on hemagglutinin (LCMS/MS) [2]: bound to the cysteine residue, which is the 152nd amino acid of the influenza hemagglutinin protein
